Assays:
creatine transporter = target: T1, creatine transporter (Homo sapiens, UniProt P48029); conditions: normal human monocytes and macrophages; read-out: Km of creatine transport; cited from earlier work
T1 construct: endogenous in cells; host or cells: normal human monocytes and macrophages
T1 sequence (P48029 1-635): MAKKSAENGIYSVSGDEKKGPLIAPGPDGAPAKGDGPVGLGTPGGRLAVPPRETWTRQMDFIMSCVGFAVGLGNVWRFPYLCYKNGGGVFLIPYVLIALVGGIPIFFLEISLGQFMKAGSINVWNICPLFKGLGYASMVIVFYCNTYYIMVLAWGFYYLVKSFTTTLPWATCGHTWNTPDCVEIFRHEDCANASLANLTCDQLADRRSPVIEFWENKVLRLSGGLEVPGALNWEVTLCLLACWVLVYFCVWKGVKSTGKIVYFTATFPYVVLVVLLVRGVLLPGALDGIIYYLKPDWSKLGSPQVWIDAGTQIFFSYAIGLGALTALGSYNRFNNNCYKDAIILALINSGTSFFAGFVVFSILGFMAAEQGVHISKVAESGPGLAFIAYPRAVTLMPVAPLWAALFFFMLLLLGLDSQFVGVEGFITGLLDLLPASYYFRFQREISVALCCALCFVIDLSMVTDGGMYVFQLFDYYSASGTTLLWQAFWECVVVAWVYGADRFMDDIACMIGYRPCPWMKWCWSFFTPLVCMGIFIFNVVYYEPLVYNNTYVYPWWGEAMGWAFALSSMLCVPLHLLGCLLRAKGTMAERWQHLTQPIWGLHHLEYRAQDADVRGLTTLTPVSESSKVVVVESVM

[1] = system: person with X-linked creatine transporter deficiency (CTD); assay: Creatine treatment of a child with X-linked creatine transporter deficiency; type: in vivo, human; conditions: increasing doses to 750 mg/kg/day, discontinued after 6 months
Description: This example illustrates that administration of creatine to a person with X-linked creatine transporter deficiency (CTD) fails to increase brain creatine or to ameliorate clinical symptoms associated with decreased brain levels of creatine. […] Several female family members were identified as heterozygote carriers of this disorder, and appear to have decreased Cr. The child had severe expressive dysphasia with other cognitive functions less affected. […] In the absence of demonstrable benefit, the creatine treatment was discontinued after 6 months.

CRT KO mice [2] = assay: Novel Object Recognition test; type: in vivo; conditions: before and after 9-week supplementation, 0.286 mg/g body weight/day
Description: Regarding FIG. 3, CRT brain-specific knockout male mice (CRT′ or CRT KO mice) and their control littermates (CrTf1″5″) were generated by the methods known in the art (e.g., by using the Cre-lox system and homologous recombination as described in Sauer B., Methods, 1998, 14, 381-392; the strategy for targeting the gene deletion to the brain region was based on the data described in Casanova E. et al., Genesis 2001, 31, 37-42). […] A total 29 CRT KO male mice (CRT^/y) and 28 control male mice (CRT^flox/y) at 12 months of age were used in the cyclocreatine supplementation study. The mice were randomly assigned to one of three groups that were started on one of three treatments for 9 weeks: 1) cyclocreatine (C-Cr, CRT KO=7, control=5), 2) creatine (Cr, CRT KO=5, control=5), and 3) maltodextrine as placebo (P, CRT KO=5, control=5). Each treatment drug was supplied in the drinking water and the concentration was adjusted to 0.286 mg/g body weight/day, corresponding to the standard dose of creatine for human subjects (20 g/70 kg body weight/day). Short-term memory of CRT KO mice and their control littermates before and after 9-week cyclocreatine supplementation was measured using the Novel Object Recognition test that is routinely used in the art for evaluation of cognition in rodent models of the disorders of the central nervous system. […]

CRT KO mice [3] = assay: Morris Water Maze test; type: in vivo
Description: Regarding FIG. 3, CRT brain-specific knockout male mice (CRT′ or CRT KO mice) and their control littermates (CrTf1″5″) were generated by the methods known in the art (e.g., by using the Cre-lox system and homologous recombination as described in Sauer B., Methods, 1998, 14, 381-392; the strategy for targeting the gene deletion to the brain region was based on the data described in Casanova E. et al., Genesis 2001, 31, 37-42). […] A total 29 CRT KO male mice (CRT^/y) and 28 control male mice (CRT^flox/y) at 12 months of age were used in the cyclocreatine supplementation study. The mice were randomly assigned to one of three groups that were started on one of three treatments for 9 weeks: 1) cyclocreatine (C-Cr, CRT KO=7, control=5), 2) creatine (Cr, CRT KO=5, control=5), and 3) maltodextrine as placebo (P, CRT KO=5, control=5). […] Spatial learning and memory in the CRT KO mice and their control littermates before and after 9-week cyclocreatine supplementation was measured by the Morris Water Maze test, a procedure routinely used in behavioral neuroscience to study spatial learning and memory. […] The mouse swims around the pool in search of an exit while various parameters are recorded, e.g., the time spent in each quadrant of the pool and the time taken to reach the platform (latency). […] Data is expressed as mean±SE, *P≦0.05.

CRT KO mice [4] = assay: Phosphorylated metabolites in the brain by in vivo magnetic resonance spectroscopy; conditions: after 9 weeks supplementation, in vivo MRS
Description: Regarding FIG. 3, CRT brain-specific knockout male mice (CRT′ or CRT KO mice) and their control littermates (CrTf1″5″) were generated by the methods known in the art (e.g., by using the Cre-lox system and homologous recombination as described in Sauer B., Methods, 1998, 14, 381-392; the strategy for targeting the gene deletion to the brain region was based on the data described in Casanova E. et al., Genesis 2001, 31, 37-42). […] A total 29 CRT KO male mice (CRT^/y) and 28 control male mice (CRT^flox/y) at 12 months of age were used in the cyclocreatine supplementation study. The mice were randomly assigned to one of three groups that were started on one of three treatments for 9 weeks: 1) cyclocreatine (C-Cr, CRT KO=7, control=5), 2) creatine (Cr, CRT KO=5, control=5), and 3) maltodextrine as placebo (P, CRT KO=5, control=5). Each treatment drug was supplied in the drinking water and the concentration was adjusted to 0.286 mg/g body weight/day, corresponding to the standard dose of creatine for human subjects (20 g/70 kg body weight/day). The levels of phosphorylated metabolites in the brains of the CRT KO and their control littermates were measured by in vivo magnetic resonance spectroscopy using the procedures well known in the art. […] Data is expressed as mean±SE,*P≦0.05, **P≦0.01.

CRT KO mice [5] = assay: Levels of cyclocreatine in the brain after supplementation; type: in vivo; conditions: 9 weeks supplementation in drinking water, 0.286 mg/g body weight/day
Description: Regarding FIG. 3, CRT brain-specific knockout male mice (CRT′ or CRT KO mice) and their control littermates (CrTf1″5″) were generated by the methods known in the art (e.g., by using the Cre-lox system and homologous recombination as described in Sauer B., Methods, 1998, 14, 381-392; the strategy for targeting the gene deletion to the brain region was based on the data described in Casanova E. et al., Genesis 2001, 31, 37-42). […] A total 29 CRT KO male mice (CRT^/y) and 28 control male mice (CRT^flox/y) at 12 months of age were used in the cyclocreatine supplementation study. The mice were randomly assigned to one of three groups that were started on one of three treatments for 9 weeks: 1) cyclocreatine (C-Cr, CRT KO=7, control=5), 2) creatine (Cr, CRT KO=5, control=5), and 3) maltodextrine as placebo (P, CRT KO=5, control=5). […] Levels of cyclocreatine and creatine in the organs of CRT KO mice and their control littermates before cyclocreatine supplementation were measured by the methods known in the art (e.g., creatine content was measured as described in Conn R., Clin. Chem., 1960, 6, 537-548; and cyclocreatine content was measured as described in Griffith G. R., J Biol. Chem. 1976, 251(7), 2049-2054). […] Data is expressed as mean±SE. §P≦0.0001, §§P<0.00001.

## CN(CC(=O)O)C(=N)N [creatine]
Creatine transporter
  Km: ~30 µM
[1]
  clinical or spectroscopic (1H MRS) improvement: without clinical or spectroscopic (^1H MRS) improvement
CRT KO mice [2]
  short-term memory (discrimination index): no significant changes

## NC1=NCCN1CC(=O)O [cyclocreatine]
CRT KO mice [3]; before and after 9-week supplementation
  spatial learning and memory: improves spatial learning and memory
CRT KO mice [3]; versus placebo treated CRT KO mice
  latency in finding hidden platforms: shorter latency
CRT KO mice [4]
  levels of cyclocreatine and/or creatine phosphate in the brain (peak height ratio): increases the levels of cyclocreatine and/or creatine phosphate
CRT KO mice [2]
  short-term memory (discrimination index): normalizes the short-term memory
CRT KO mice [5]
  levels of cyclocreatine in the brains: increased

Reference: US9233099B2, “Methods of treating cognitive dysfunction by modulating brain energy metabolism” (University of Cincinnati, priority 2012, dated 2016)
